From patent US10538498B2, “1,3,4-oxadiazole sulfonamide derivative compounds as histone deacetylase 6 inhibitor, and the pharmaceutical composition comprising the same” (Chong Kun Dang Pharmaceutical Corp., priority 2015, dated 2020)

How the values were obtained:
human recombinant HDAC1 = target: T1, human recombinant HDAC1 (Homo sapiens, UniProt Q13547); test: HDAC1 enzyme activity inhibition assay (HDAC Fluorimetric Drug Discovery Kit); format: biochemical; conditions: 0.3 μg enzyme, 10 μM substrate, 30° C., 60 minutes
T1 construct: purchased Enzo Life Science BML-SE456
T1 sequence (Q13547 whole entry): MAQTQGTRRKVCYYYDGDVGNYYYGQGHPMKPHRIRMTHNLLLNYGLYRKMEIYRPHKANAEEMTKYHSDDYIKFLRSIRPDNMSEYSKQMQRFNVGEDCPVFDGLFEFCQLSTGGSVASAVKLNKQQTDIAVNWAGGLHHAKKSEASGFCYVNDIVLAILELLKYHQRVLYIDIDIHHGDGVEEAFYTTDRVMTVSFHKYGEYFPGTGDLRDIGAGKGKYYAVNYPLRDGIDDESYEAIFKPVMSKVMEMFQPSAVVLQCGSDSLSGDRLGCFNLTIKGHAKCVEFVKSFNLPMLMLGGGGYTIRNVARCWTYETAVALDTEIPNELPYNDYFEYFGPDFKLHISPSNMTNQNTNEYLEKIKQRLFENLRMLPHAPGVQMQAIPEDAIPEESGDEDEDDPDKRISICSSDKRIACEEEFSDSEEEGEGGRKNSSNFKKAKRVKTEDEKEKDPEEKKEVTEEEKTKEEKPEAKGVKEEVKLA
Procedure, shortened: (§1)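 Both isoforms are run by an identical fluorimetric protocol: deacetylation of 10 μM Fluor de Lys-SIRT1 substrate by 0.3 μg recombinant enzyme over 60 min at 30° C, in the presence of 5-fold compound dilutions. Signal is developed for 30 min and read at Ex 360/Em 460 to derive IC50.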

human recombinant HDAC6 = target: T2, human recombinant HDAC6 (Homo sapiens, UniProt Q9UBN7); test: HDAC6 enzyme activity inhibition assay (HDAC Fluorimetric Drug Discovery Kit); format: biochemical; conditions: for HDAC6 selectivity (fold): HDAC1 vs HDAC6; for IC50: same protocol as the HDAC1 enzyme activity test
T2 construct: purchased Calbiochem 382180
T2 sequence (Q9UBN7 1-1215): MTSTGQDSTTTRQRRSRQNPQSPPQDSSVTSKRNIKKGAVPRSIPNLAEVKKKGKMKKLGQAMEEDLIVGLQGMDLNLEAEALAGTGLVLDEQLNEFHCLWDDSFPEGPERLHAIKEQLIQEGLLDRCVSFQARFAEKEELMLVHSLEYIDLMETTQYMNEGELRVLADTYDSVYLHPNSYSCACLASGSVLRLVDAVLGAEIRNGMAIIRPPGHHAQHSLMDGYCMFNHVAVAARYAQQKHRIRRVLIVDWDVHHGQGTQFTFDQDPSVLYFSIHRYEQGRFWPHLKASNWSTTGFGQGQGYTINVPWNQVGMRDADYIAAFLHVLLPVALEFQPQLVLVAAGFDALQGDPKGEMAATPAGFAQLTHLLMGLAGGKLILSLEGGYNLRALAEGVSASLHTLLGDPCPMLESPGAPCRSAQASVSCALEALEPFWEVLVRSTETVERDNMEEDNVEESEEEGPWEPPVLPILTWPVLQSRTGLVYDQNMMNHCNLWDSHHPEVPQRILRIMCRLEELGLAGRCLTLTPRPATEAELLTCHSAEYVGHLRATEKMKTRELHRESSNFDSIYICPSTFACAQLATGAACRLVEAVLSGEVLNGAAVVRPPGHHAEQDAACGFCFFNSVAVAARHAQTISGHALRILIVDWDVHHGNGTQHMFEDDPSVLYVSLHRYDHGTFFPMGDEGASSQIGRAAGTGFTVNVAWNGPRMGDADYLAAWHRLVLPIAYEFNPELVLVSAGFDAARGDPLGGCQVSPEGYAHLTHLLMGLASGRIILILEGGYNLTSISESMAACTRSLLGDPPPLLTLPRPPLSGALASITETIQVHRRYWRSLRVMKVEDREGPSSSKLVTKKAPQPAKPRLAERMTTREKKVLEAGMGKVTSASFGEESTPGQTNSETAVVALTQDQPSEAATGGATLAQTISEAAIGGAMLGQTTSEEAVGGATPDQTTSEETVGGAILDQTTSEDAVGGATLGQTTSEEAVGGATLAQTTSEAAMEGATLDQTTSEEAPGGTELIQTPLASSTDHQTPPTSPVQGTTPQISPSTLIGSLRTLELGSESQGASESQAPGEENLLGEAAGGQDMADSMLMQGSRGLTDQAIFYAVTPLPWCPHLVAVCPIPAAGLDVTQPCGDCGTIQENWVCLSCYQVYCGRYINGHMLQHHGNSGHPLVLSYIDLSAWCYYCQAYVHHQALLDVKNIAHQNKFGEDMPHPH
Procedure, shortened: as §1

| SMILES | IC50 (human recombinant HDAC1) | HDAC6 selectivity (fold) (human recombinant HDAC6) | IC50 (human recombinant HDAC6) |
| --- | --- | --- | --- |
| O=C(CO)N1CC(N2CCC(S(=O)(=O)N(Cc3ccc(-c4nnc(C(F)F)o4)cc3F)c3ccc(F)c(Cl)c3)CC2)C1 [Compound 11452, N-(3-chloro-4-fluorophenyl)-N-(4-(5-(difluoromethyl)-1,3,4-oxadiazol-2-yl)-2-fluorobenzyl)-1-(1-(2-hydroxyacetyl)azetidin-3-yl)piperidine-4-sulfonamide] | 27.5 µM | 3439 fold | 0.008 µM |
| CCS(=O)(=O)N(Cc1ccc(-c2nnc(C(F)(F)F)o2)cn1)c1ccccc1 [Compound 11430, N-phenyl-N-((5-(5-(trifluoromethyl)-1,3,4-oxadiazol-2-yl)pyridin-2-yl)methyl)ethanesulfonamide] | 22.2 µM | 529 fold | 0.042 µM |
| CS(=O)(=O)N(Cc1ccc(-c2nnc(C(F)(F)F)o2)cc1F)c1ccc2c(c1)OCO2 [Compound 11226, N-(benzo[d][1,3]dioxol-5-yl)-N-(2-fluoro-4-(5-(trifluoromethyl)-1,3,4-oxadiazol-2-yl)benzyl)methanesulfonamide] | 11.6 µM | 297 fold | 0.039 µM |
| CS(=O)(=O)N(Cc1ccc(-c2nnc(C(F)(F)F)o2)nc1)c1ccccc1 [Compound 11173, N-phenyl-N-((6-(5-(trifluoromethyl)-1,3,4-oxadiazol-2-yl)pyridin-3-yl)methyl)methanesulfonamide] | 28.6 µM | 43 fold | 0.661 µM |

Continued, values first:

| IC50 (human recombinant HDAC1) | HDAC6 selectivity (fold) (human recombinant HDAC6) | IC50 (human recombinant HDAC6) | SMILES |
| --- | --- | --- | --- |
| 46.5 µM | 312 fold | 0.149 µM | CS(=O)(=O)N(Cc1ncc(-c2nnc(C(F)(F)F)o2)cn1)c1ccccc1 [Compound 11565, N-phenyl-N-((5-(5-(trifluoromethyl)-1,3,4-oxadiazol-2-yl)pyrimidin-2-yl)methyl)methanesulfonamide] |
| 76.4 µM | 2634 fold | 0.029 µM | O=S(=O)(C1CCN(C2COC2)CC1)N(Cc1ccc(-c2nnc(C(F)F)o2)cc1)c1ccccc1 [Compound 11680, N-(4-(5-(difluoromethyl)-1,3,4-oxadiazol-2-yl)benzyl)-1-(oxetan-3-yl)-N-phenylpiperidine-4-sulfonamide] |
| 77.9 µM | 1277 fold | 0.061 µM | O=S(=O)(CCN1CCCC1)N(Cc1ccc(-c2nnc(C(F)F)o2)cc1)c1ccccc1 [Compound 11645, N-(4-(5-(difluoromethyl)-1,3,4-oxadiazol-2-yl)benzyl)-N-phenyl-2-(pyrrolidin-1-yl)ethane-1-sulfonamide] |
